The record followed here is patent US20130178488A1, “TRICYCLIC COMPOUNDS, PREPARATION METHODS, AND THEIR USES” (priority 2011, published 2013).

In the test the target is T1, recombinant human Lp-PLA2 (Homo sapiens, UniProt Q13093).
T1 sequence (Q13093 22-441): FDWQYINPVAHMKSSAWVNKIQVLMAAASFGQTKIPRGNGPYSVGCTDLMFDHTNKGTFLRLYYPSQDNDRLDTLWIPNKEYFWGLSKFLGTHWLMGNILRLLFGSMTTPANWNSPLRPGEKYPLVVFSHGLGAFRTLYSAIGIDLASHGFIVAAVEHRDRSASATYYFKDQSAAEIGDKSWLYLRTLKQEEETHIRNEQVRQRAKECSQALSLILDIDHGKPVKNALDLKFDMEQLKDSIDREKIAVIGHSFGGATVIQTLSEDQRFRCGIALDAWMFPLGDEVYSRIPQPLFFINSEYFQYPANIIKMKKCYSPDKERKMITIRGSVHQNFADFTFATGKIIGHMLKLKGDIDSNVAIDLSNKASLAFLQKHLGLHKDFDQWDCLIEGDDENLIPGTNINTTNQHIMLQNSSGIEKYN
In words: Recombinant human Lp-PLA2 assay (rhLp-PLA2, PED6 assay). The note with it: one experiment or average of multiple experiments; upper limit of the PED6 assay is pIC50 9.3. The format is biochemical. From the text: (1) Recombinant Human Lp-PLA2 Assay (rhLp-PLA2) (Also Referred to as “PED6” Assay)
N-((6-(2,4-dinitrophenyl)amino)-hexanoyl)-2-(4,4-difluoro-5,7-dimethyl-4-bora-3a,4a-diaza-s-indacene-3-pentanoyl)-1-hexadecanoyl-sn-glycero-3-phosphoethanolamine, triethylammonium salt (PED6) is a commercially available fluorescently-labeled phospholipid, which is commercially available from Molecular Probes. There is a quenching para-nitro phenyl (PNP) group in the sn3 position and a Bodipy fluorescein (FL) group in the sn2 position. Upon cleavage with LpPLA2, the Bodipy Fl group is liberated and then may result in an increase in fluorescence. Inhibitors of LpPLA2 therefore prevent this cleavage and no fluorescent increase is observed.
The PED6 assay is run as an unquenched 10 μL assay. Compounds source plate is prepared by making 1:3 (by volume) serial dilution of the compounds into pure DMSO on 384-well microplate. Then 0.01 μL of compounds on compound source plate are transferred into 384 well Greiner 784076 (black) plates by ECHO liquid dispenser. 5 μL of recombinant human Lp-PLA2 enzyme (2 nM rhLp-PLA2 in assay buffer of 50 mM HEPES, pH7.4, 150 mM NaCl, 1 mM CHAPS) is added to each well of the plate with compounds. Plates are centrifuged for 10 sec at 500 rpm. After 30 minutes preincubation, 5 μL of substrate (4 μM PED6 [from 5 mM DMSO stock] in assay buffer of 50 mM HEPES, pH7.4, 150 mM NaCl, 1 mM CHAPS) is added to 384 well Greiner 784076 (black) plates. Plates are centrifuged for 10 sec at 500 rpm. Plate is covered to protect from light and incubated for 20 min at room temperature. Plates are read for Fluorescence intensity at ex: 480/em: 540 using ViewLux microplate imager. PIC50 data, curve and QC analysis is conducted by using XL fit module in Excel.
With `COc1ccc2c(c1)CCn1c-2cc(OCc2ccc(Oc3ccc(C(F)(F)F)cn3)c(C#N)c2)nc1=O` [Example E22, 5-(((9-Methoxy-4-oxo-6,7-dihydro-4H-pyrimido[6,1-a]isoquinolin-2-yl)oxy)methyl)-2-((5-(trifluoromethyl)pyridin-2-yl)oxy)benzonitrile], the IC50 was 0.631 nM.

As to `N#Cc1cc(COc2cc3n(c(=O)n2)CCc2ccccc2-3)ccc1Oc1cccc(C(F)(F)F)n1` [Example 96, 5-(((4-oxo-6,7-dihydro-4H-pyrimido[6,1-a]isoquinolin-2-yl)oxy)methyl)-2-((6-(trifluoro-methyl)pyridin-2-yl)oxy)benzonitrile], the IC50 was 0.794 nM.

With `N#Cc1cc(COc2cc3n(c(=O)n2)CCc2cc(F)ccc2-3)ccc1Oc1cccc(C(F)(F)F)c1` [Example 89, 5-(((9-fluoro-4-oxo-6,7-dihydro-4H-pyrimido[6,1-a]isoquinolin-2-yl)oxy)methyl)-2-(3-(trifluoromethyl)phenoxy)benzonitrile], the IC50 was 3.16 nM.

On to `N#Cc1cc(COc2cc3n(c(=O)n2)CCc2cc(F)ccc2-3)ccc1Oc1ccc(Cl)c(C(F)(F)F)c1` [Example 92, 2-(4-chloro-3-(trifluoromethyl)phenoxy)-5-(((9-fluoro-4-oxo-6,7-dihydro-4H-pyrimido[6,1-a]isoquinolin-2-yl)oxy)methyl)benzonitrile], for which the IC50 is 0.794 nM.

Take `COc1ccc2c(c1)CCn1c-2cc(Oc2ccc(Oc3cccc(C(F)(F)F)c3)c(C#N)c2)nc1=O` [Example E1, 5-((9-Methoxy-4-oxo-6,7-dihydro-4H-pyrimido[6,1-a]isoquinolin-2-yl)oxy)-2-(3-(trifluoromethyl)phenoxy)benzonitrile]: the IC50 is ≤ 0.501 nM.

Turning to `O=c1nc(OCc2ccc(Oc3cnc(C(F)(F)F)nc3)c(F)c2)cc2n1CCc1cc(F)ccc1-2` [Example 98, 9-fluoro-2-((3-fluoro-4-((2-(trifluoromethyl)pyrimidin-5-yl)oxy)benzyl)oxy)-6,7-dihydro-4H-pyrimido[6,1-a]isoquinolin-4-one], the IC50 is ≤ 0.501 nM.

Consider `COc1ccc2c(c1)CCn1c-2cc(OCc2ccc(Oc3ccc(C(F)(F)F)nc3)c(F)c2)nc1=O` [Example E58, 2-((3-fluoro-4-((6-(trifluoromethyl)pyridin-3-yl)oxy)benzyl)oxy)-9-methoxy-6,7-dihydro-4H-pyrimido[6,1-a]isoquinolin-4-one], for which the IC50 was 1 nM.

For `N#Cc1cc(COc2cc3n(c(=O)n2)CCc2cc(F)ccc2-3)ccc1Oc1ccc(C(F)(F)F)cn1` [Example 93, 5-(((9-fluoro-4-oxo-6,7-dihydro-4H-pyrimido[6,1-a]isoquinolin-2-yl)oxy)methyl)-2-((5-(trifluoromethyl)pyridin-2-yl)oxy)benzonitrile], the IC50 is 1 nM.

Turning to `O=c1nc(OCc2cc(F)c(Oc3ccc(C(F)(F)F)nc3)c(F)c2)cc2n1CCc1ccccc1-2` [Example 94, 2-((3,5-difluoro-4-((6-(trifluoromethyl)pyridin-3-yl)oxy)benzyl)oxy)-6,7-dihydro-4H-pyrimido[6,1-a]isoquinolin-4-one], the IC50 was 1 nM.

Regarding `N#Cc1cc(COc2cc3n(c(=O)n2)CCc2ccccc2-3)ccc1Oc1ccc(C(F)(F)F)nc1` [Example 91, 5-(((4-oxo-6,7-dihydro-4H-pyrimido[6,1-a]isoquinolin-2-yl)oxy)methyl)-2-((6-(trifluoro-methyl)pyridin-3-yl)oxy)benzonitrile], the IC50 was 1 nM.

As for `N#Cc1cc(COc2cc3n(c(=O)n2)CCc2ccccc2-3)ccc1Oc1ccc(Cl)c(C(F)(F)F)c1` [Example 88, 2-(4-chloro-3-(trifluoromethyl)phenoxy)-5-(((4-oxo-6,7-dihydro-4H-pyrimido[6,1-a]isoquinolin-2-yl)oxy)methyl)benzonitrile], the IC50 was 0.794 nM.

For the compound `COc1ccc2c(c1)CCn1c-2cc(OCc2ccc(Oc3ccc(C(F)(F)F)nc3)c(C#N)c2)nc1=O` [Example E36, 5-({[9-(Methyloxy)-4-oxo-6,7-dihydro-4H-pyrimido[6,1-a]isoquinolin-2-yl]oxy}methyl)-2-{[6-(trifluoromethyl)-3-pyridinyl]oxy}benzonitrile], the IC50 was 1 nM.
